# Reference: patent publication US9606114B2, “Multivalent chelators containing a scaffold structure for modifying and organizing of target molecules” (JOHANN WOLFGANG GOETHE-UNIVERSITAT FRANKFURT AM MAIN, priority 2004, dated 2017)
# How the values were obtained:
# [1] = target: T1, ifnar2-H10 (Homo sapiens, UniProt P48551); assay: Fluorescence quantum yield of MCH-fluorophore conjugate after Ni(II) loading and protein binding; type: physicochemical
# T1 construct: the extracellular domain of ifnar2 with a C-terminal deca-histidine-tag (ifnar2-H10)
# T1 sequence (P48551 with tags, fused parts or gaps): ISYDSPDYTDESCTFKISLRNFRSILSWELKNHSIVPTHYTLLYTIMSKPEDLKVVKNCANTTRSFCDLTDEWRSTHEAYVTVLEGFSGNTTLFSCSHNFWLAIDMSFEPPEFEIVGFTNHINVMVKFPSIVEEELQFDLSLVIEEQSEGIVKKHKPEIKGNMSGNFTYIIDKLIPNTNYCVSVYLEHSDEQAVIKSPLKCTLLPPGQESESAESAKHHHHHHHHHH
# Method: (§1) For a non-covalent fluorescence labeling of histidine-tagged proteins in solution conjugates of tris-NTA with three different fluorophores were synthesized: Oregon Green 488, ATTO 565, FEW-S0387 (FIG. 17).
# (§2) After loading with Ni(II)-ions ifnar2-H10 was added to these conjugates and the excess conjugate was separated through gel filtration.
# (§3) The different states of the MCH-fluorophore-conjugate could be followed by fluorescence quantum yield. (FIG. 18B). After loading of the chelator-groups with Ni(II)-ions a marked reduction of the fluorescence to about 50% was observed, and after binding to the protein to about 40%.
# [2] = system: ifnar2-H10; assay: as above; type: physicochemical; details: relative to unloaded conjugate
# Method: as §1, §2, §3
# [3] = target: T1, ifnar2-H10; assay: Immobilization of histidine-tagged protein on chelator-modified surface, detected by RIfS; type: binding; details: immobilized on tris-NTA modified surface
# From the text: The interaction of histidine-tagged proteins with the surfaces as produced in example 1 was characterized in detail by means of reflectometric interference spectroscopy (RIfS). Using this method, the binding of proteins to surfaces can be quantified in real time, as described in Piehler and Schreiber 2001 (Piehler J, Schreiber G. 2001. Fast transient cytokine-receptor interactions monitored in real time by reflectometric interference spectroscopy. Anal. Biochem. 289(2):173-186.)
# The immobilization of the extracellular domain of ifnar2 with a C-terminal deca-histidine-tag (ifnar2-H10) to a tris-NTA modified surface (FIG. 7A) is shown in FIG. 7B. Whereas no binding was detectable before loading of the chelator coupled to the surface with Ni(II)-ions, thereafter an overall binding of about 1.5 ng/mm^2 protein was observed that also maintained stably immobilized during rinsing. Nevertheless, this protein could be removed quantitatively with 200 mM imidazole as competitor.
# The functionality of the immobilized protein was examined through the binding of the ligand interferon α2 (IFNα2) (FIG. 8).
# [4] = target: T1, ifnar2-H10; assay: Lateral diffusion of protein anchored via bis-NTA lipid to solid-supported lipid double layer (FRAP); details: membrane-anchored via bis-NTA lipid in stearoyl-oleoyl-phosphatidylcholine double layer
# From the text: For an attachment of proteins to lipid membranes, a lipid-analogue conjugate of bis-NTA was synthesized that is shown in FIG. 15A.
# This lipid was incorporated into unilaminar vesicles of stearoyl-oleoyl-phosphatidylcholine that spontaneously form a fluid solid-supported lipid-double layer on glass surfaces (FIG. 15B). ifnar2-H10 could be specifically anchored at these membranes, whereby the binding activity was completely preserved (FIG. 15B). The lateral diffusion of the membrane-anchored ifnar2-H10 was analyzed through fluorescence-bleaching (fluorescence recovery after photobleaching, FRAP) (FIG. 16). Thereby, a diffusion constant of 1 μm^2/s was determined.
substance,measurement,setting,value
ATTO 565-Tris-NTA,reduction of fluorescence compared with Oregon Green conjugate,[1]; Ni(II) loading and protein binding,even more pronounced
OG 488-Tris-NTA [tris-NTA-Oregon Green],fluorescence after binding to the protein,[1]; Ni(II)-loaded conjugate bound to ifnar2-H10,about 40%
same,fluorescence after loading of the chelator-groups with Ni(II)-ions,[2],about 50%
ifnar2-H10: extracellular domain of ifnar2 (type I interferon-receptor 2) with a C-terminal deca-histidine-tag,immobilized ifnar2-H10 active (binding of ligand IFNα2),[3],more than 90%
same,diffusion constant,[4],1 μm^2/s
